Measured values taken from ChEMBL document CHEMBL3045121, “Synthesis of an Antifungal Naphthoquinone Isolated fromRhinacanthus nasutus(Acanthaceae)” (1995).
In brackets after ≈: the same amount, converted by molar mass.

System: Pyricularia oryzae
Test: Inhibition of spore germination of Magnaporthe oryzae
Type: functional
Settings: read-out: ED50 (the source's name)

Structure (SMILES)	EC50 [µg/mL]
C/C=C(\C)CC/C=C(\C)C(=O)OCC(C)(C)CC1=C(O)C(=O)c2ccccc2C1=O [RHINACANTHIN C]	0.2 (≈ 0.487 µM)
CC1(C)COC2=C(C1)C(=O)C(=O)c1ccccc12 [RHINACANTHONE]	0.4 (≈ 1.65 µM)
